Reference: patent publication US20090320166A1, “Synergistic Insecticide And Fungicidal Mixtures” (BAYER CROPSCIENCE AG, priority 2006, published 2009)

Assays:
Phaedon cochleariae = Phaedon cochleariae larvae test (cabbage leaf dip); details: Table B1, 200 ppm, mustard beetle larvae on cabbage leaves
Myzus persicae = Myzus persicae test (cabbage leaf dip); type: in vivo; details: 200 ppm
Description: Solvent: 7 parts by weight of dimethylformamide

Cn1cc(C(=O)Nc2ccccc2C2CC2C2CC2)c(C(F)F)n1 (stereo not drawn) [compound (I-4)]
0%: Kill in % after 6d (Phaedon cochleariae) | Kill in % after 1d (Myzus persicae; Table A1, green peach aphid on cabbage leaves, after 1 d) | Kill in % after 6d (Myzus persicae; Table A2, after 6 d)
